# According to patent US7485327B2, “Composition comprising Melissa leaf extract for anti-angiogenic and matrix metalloproteinase inhibitory activity” (AngioLab, Inc., priority 2001, dated 2009):
# Tested on: B16BL6 cells
# Test: Cancer metastasis: B16BL6 melanoma colonies in lung
# Type: in vivo, C57BL/6 male mouse
# Protocol: B16BL6 cells (5×10^4) were injected into C57BL/6 male mouse of 6 to 7 weeks old through the tail vein. After that, 0.2 ml of water or drug combinations was daily given to mice by oral administration for 3 weeks. Three weeks after injection, the mice were sacrificed and the number of tumor colonies on the surface of lungs was counted under microscope. The average number of melanoma colonies in lungs from mice of treated group was less than that from control mice.
smiles,measurement,setting,value
"Clc1ccccc1CN1CCc2sccc2C1 [Ticlopidine, ticlopidine]",Inhibition (%) of metastasis,oral daily for 3 weeks,38%
same,Colonies in lung,oral daily for 3 weeks after tail vein injection of B16BL6 cells,83 ± 20
